Read-outs that look alike come from different tables or passages of the source.
Legend:
[1] = tested on: oreillette gauche isolée de cobaye; test: Contractile force of electrically stimulated isolated guinea pig left atrium; format: cell-based; details: for effet sur la force contractile: result in words, comment on tableau 3
Source text: (§1) Les effets sur le rythme et sur la concentration cardiaques ont été respectivement mis en évidence sur l'oreillette droite battant spontanément et sur l'oreillette gauche stimulée électriquement, suivant la technique décrite par GROSSMANN A., FURCHGOTT R. (J. Pharmacol. Exp. Ther. 1964, 143, 107-119).

[2] = tested on: artère caudale proximale; test: Inhibition of phenylephrine-induced contraction of isolated rat caudal artery, proximal segment; format: cell-based; details: read-out: EFFET SUR L'ARTERE CAUDALE DE RAT I50 SEGMENT PROXIMAL
Source text: (§2) L'inhibition des réponses contractiles maximales provoquées par la Phényléphrine ([…]) a été étudiée sur l'aorte isolée du rat préparée suivant la technique décrite par VALETTE,G. et BA MUOI, N. (Ann. Pharm. franc. 1962, 20, 557-582) et sur le segment proximal et le segment distal de l'artère caudale suivant la technique-décrite par WORCEL, M. (J. Pharmacol. Exp. Therm. 1978, 207, 210-330). Dans tous les cas, les dérivés STB se sont comportés comme de puissants antagonistes non compétitifs de la Phényléphrine. Leurs concentrations inhibitrices 50% (ID50) sont indiquées dans le tableau 2. Comme c'est le cas pour d'autres vasodilatateurs (comme l'Hydralazine), l'- artère caudale est plus sensible que l'aorte à l'effet inhibiteur des dérivés étudiés.

[3] = tested on: oreillette droite isolée de cobaye; test: Frequency of spontaneously beating isolated guinea pig right atrium; format: cell-based; details: for Inhibition % du rythme de base / Inhibition % du rythme maximal en présence d'isoprotérénol: mean of 3 experiments ± erreur type; for effet sur la fréquence: result in words, comment on tableau 3
Source text: as §1

[4] = tested on: patients hypertendus; details: Faquet, Lisle et Combaz 1954; cited from earlier work
[5] = tested on: aorte isolée du rat; test: Inhibition of phenylephrine-induced contraction of isolated rat aorta; format: cell-based; details: read-out: EFFET SUR L'AORTE DE RAT I50
Source text: as §2

[6] = tested on: muscle lisse; details: Raymond Hamet 1952, 1953; cited from earlier work
[7] = tested on: artère caudale distale; test: Inhibition of phenylephrine-induced contraction of isolated rat caudal artery, distal segment; format: cell-based; details: read-out: EFFET SUR L'ARTERE CAUDALE DE RAT I50 SEGMENT DISTAL
Source text: as §2

[8] = tested on: effets hypertenseurs de l'adrénaline chez le chien; details: Raymond Hamet 1952, 1953; cited from earlier work
[9] = Acute toxicity, DL 50 in mice (Litchfield and Wilcoxon method); format: in vivo, souris; details: mouse, in vivo, DL 50 and its upper and lower limits for p = 0,05
Description: (§3) La DL 50 a été déterminée chez la souris par la méthode de LITCHFIELD et WILCOXON (J. Pharmacol. 1949 96, 99-113). Les dérivés étudiés ont été administrés en solution aqueuse additionnée de 7% de diméthylformamide, gavage oesophagien de 0,4 ml/20g) à des souris mâles pesant de 20 à 25g.
(§4) C'est pourquoi, il a été comparé au STB 0 par injection intrapéritonéale (même solution et même volume injectés par voie orale).

[10] = tested on: rat anesthésié par l' "Inactine"; test: Cardiac output (thermodilution), arterial pressure and peripheral vascular resistance in Inactine-anaesthetised rats; format: in vivo; parameters: Volume éjection systolique: unit not given here; details: Après: 45 minutes after 15 mg.kg^-1 i.p., n=7, mean ± erreur type
Description: Les effets sur le débit cardiaque et la résistance vasculaire périphérique ont été mesurés chez le rat anesthésié par l' "Inactine" (70 mg.kg^-1), voie intrapéritonéale). Le débit a été mesuré par thermodilution suivant la technique décrite par HONDAS et al (Path. Biol. 1979, 17 1069-1078). La pression moyenne a été enregistrée à l'aide d'un cathéter placé dans l'artère fémorale du rat. Les mesures ont été faites avant et entre 45 et 60 minutes après l'administration intra-péritonéale des anti-hypertenseurs. Chaque chiffre expérimental représente la moyenne de trois mesures successives. Les résultats, donnés à titre d'exemple dans le tableau 1, ci-après,en ce qui concerne le STB 6, montrent que l'administration de l'anti-hypertenseur provoque une importante chute de pression artérielle imputable à une diminution marquée de la résistance vasculaire périphérique et sans variation significative du débit et du rythme cardiaques, ni du volume d'éjection systolique.

[11] = tested on: souris; test: Acute toxicity, DL 50 in mice (Litchfield and Wilcoxon method); format: in vivo; details: result in words, comment on tableau 4
Description: as §3, §4

[12] = Solubility in the dosing solution (aqueous solution with 7% dimethylformamide); format: physicochemical; details: reason why oral DL 50 could not be determined; result in words
Description: as §3, §4

[13] = Concentration 5.10^-5 mole/l, stimulated at 2,5 Hz, mean of 3 experiments ± erreur type, read-out: Variation % de la force contractile de base
[14] = contraction by phényléphrine 1.10^-6M, mean of at least 3 experiments ± erreur type
[15] = contraction by phényléphrine 1.10^-5M, mean of at least 3 experiments ± erreur type
[16] = contraction by phényléphrine 5.10^-6M, mean of at least 3 experiments ± erreur type
[17] = read-out: Variation % de la force contractile de base

SMILES | activation at 50 µM [1, 13] | effet sur la force contractile [1] | IC50 [2, 14] | Inhibition % du rythme de base ([3]; Concentration 5.10^-5 mole/l) | Inhibition % du rythme maximal en présence d'isoprotérénol ([3]; Concentration 5.10^-5 mole/l) | effet sur la fréquence [3] | IC50 [5, 15] | IC50 [7, 16] | LD50 ([9]; po, per os, male mice 20 à 25g) | LD50 ([9]; ip.) | toxicité aiguë, comparison [11] | IC50 [2] | IC50 [5] | IC50 [7] | other results
c1ccc2c(c1)CC1c3ccccc3CCN1C2 (stereo not drawn) [STB0, 5,8,13,13a-tétrahydro-6H-dibenzo [a,g] quinolizine, reference compound] | -47% | déprime fortement | 300 nM | 46 ± 5% | 38 ± 6% | déprime fortement | 13000 nM | 1300 nM | 464 mg/kg | 262 mg/kg |  |  |  |  | action hypotensive [4]: exerce une action hypotensive; contraction du muscle lisse provoquée par l'ion K^+ [6]: inhibe la contraction du muscle lisse; effets hypertenseurs de l'adrénaline [8]: inverse les effets hypertenseurs de l'adrénaline
Oc1ccc2c(c1)CCN1Cc3ccccc3CC21 (stereo not drawn) [STB4, 3-hydroxy-5,8,13,13a-tétrahydro-6H-dibenzo [a, g] quinolizine] |  | ne diminuent pas la force contractile | 1000 nM |  |  | subsistent de façon moins marquée | 26000 nM | 1900 nM | 464 mg/kg |  |  |  |  |  | Variation % de la force maximale en présence d'isoprotérénol ([1]; Concentration 45.10^-5 mole/l, stimulated at 2,5 Hz, mean of 3 experiments ± erreur type): 0%; activation at 450 µM ([1]; Concentration 45.10^-5 mole/l, stimulated at 2,5 Hz, mean of 3 experiments ± erreur type, read-out: Variation % de la force contractile de base): 0%; Inhibition % du rythme de base ([3]; Concentration 45.10^-5 mole/l): 13,8 ± 5,8%; Inhibition % du rythme maximal en présence d'isoprotérénol ([3]; Concentration 45.10^-5 mole/l): 28,7 ± 1,8%
COc1cc2c(cc1OC)CN1CCc3cc(O)ccc3C1C2 (stereo not drawn) [STB6, 3-hydroxy-10,11-diméthoxy-5,8,13,13a-tétrahydro-6H-dibenzo [a, g] quinolizine] | 32% | augmentent fortement la force contractile | 1100 nM | 8 ± 5% | 21,6 ± 1,2% | subsistent de façon moins marquée | 59000 nM | 2100 nM | 275 mg/kg |  | le plus toxique |  |  |  | Variation % de la force maximale en présence d'isoprotérénol ([1]; Concentration 5.10^-5 mole/l, stimulated at 2,5 Hz, mean of 3 experiments ± erreur type): 0%; Volume éjection systolique ([10]; n.s., Avant: 0,71 ± 0,04): 0,78 ± 0,035; débit cardiaque (DC) ([10]; n.s., Avant: 237,7 ± 12,9): 293,9 ±18,7 n.s. ml, mn.kg^-1; Rythme ([10]; n.s., Avant: 386 ± 11): 374 ± 12 n.s. systoles/mn; pression artérielle moyenne (PA) ([10]; p≤ 0,01, Avant: 150,2 ± 3,9): ‡‡‡ 89,1 ± 3,3 mmHg; résistance vasculaire périphérique totale (RVPt) ([10]; p≤ 0,01, Avant: 728,9 ± 29,2): ‡‡‡ 412,2 ± 17,8 dynes.mn.cm^-5.kg^-1
COc1cc2c(cc1OC)CN1CCc3cc(OC(=O)Cc4ccccc4)ccc3C1C2 (stereo not drawn) [STB52, 3-phénacétyloxy-10,11-diméthoxy-5,8,13,13a tétrahydro-6H-dibenzo [a, g] quinolizine] |  | augmentent fortement la force contractile |  |  |  | subsistent de façon moins marquée |  |  | 550 mg/kg |  |  | 2100 nM | 51000 nM | 4300 nM | activation at 5 µM [1, 17]: 90%; Inhibition % du rythme de base ([3]; Concentration 5.10^-6 mole/l): 14 ± 7%; Inhibition % du rythme maximal en présence d'isoprotérénol ([3]; Concentration 5.10^-6 mole/l): 17 ± 3%
O=C(Cc1ccccc1)Oc1ccc2c(c1)CCN1Cc3ccccc3CC21 (stereo not drawn) [STB69, 3-phénacétyloxy-5,8,13,13a-tétrahydro-6H-dibenzo-[a, g] quinolizine] |  | pratiquement dépourvu d'action |  | 0% | 12,5 ± 2,7% | pratiquement dépourvu d'action |  |  | > 650 mg/kg | 378 mg/kg | le moins toxique | 1500 nM | 58000 nM | 3100 nM | activation at 50 µM [1, 17]: 12.6%; solubilité [12]: solubilité insuffisante
